Assay [1] concerns the target Vascular endothelial growth factor receptor 2 (Homo sapiens, UniProt P35968). Kind of assay: Inhibition of KDR after 2 hrs incubation.
In assay [2] the test system is HUVEC. The assay can be described thus: Antiproliferative activity against HUVEC after 72 hrs by WST8 dye reduction assay. Format: functional, cell-based. The following applies: Homo sapiens. On the technique in general: Formazan colour is commonly taken as a measure of viable cells.

Vascular endothelial growth factor receptor 2, sequence (P35968 whole entry): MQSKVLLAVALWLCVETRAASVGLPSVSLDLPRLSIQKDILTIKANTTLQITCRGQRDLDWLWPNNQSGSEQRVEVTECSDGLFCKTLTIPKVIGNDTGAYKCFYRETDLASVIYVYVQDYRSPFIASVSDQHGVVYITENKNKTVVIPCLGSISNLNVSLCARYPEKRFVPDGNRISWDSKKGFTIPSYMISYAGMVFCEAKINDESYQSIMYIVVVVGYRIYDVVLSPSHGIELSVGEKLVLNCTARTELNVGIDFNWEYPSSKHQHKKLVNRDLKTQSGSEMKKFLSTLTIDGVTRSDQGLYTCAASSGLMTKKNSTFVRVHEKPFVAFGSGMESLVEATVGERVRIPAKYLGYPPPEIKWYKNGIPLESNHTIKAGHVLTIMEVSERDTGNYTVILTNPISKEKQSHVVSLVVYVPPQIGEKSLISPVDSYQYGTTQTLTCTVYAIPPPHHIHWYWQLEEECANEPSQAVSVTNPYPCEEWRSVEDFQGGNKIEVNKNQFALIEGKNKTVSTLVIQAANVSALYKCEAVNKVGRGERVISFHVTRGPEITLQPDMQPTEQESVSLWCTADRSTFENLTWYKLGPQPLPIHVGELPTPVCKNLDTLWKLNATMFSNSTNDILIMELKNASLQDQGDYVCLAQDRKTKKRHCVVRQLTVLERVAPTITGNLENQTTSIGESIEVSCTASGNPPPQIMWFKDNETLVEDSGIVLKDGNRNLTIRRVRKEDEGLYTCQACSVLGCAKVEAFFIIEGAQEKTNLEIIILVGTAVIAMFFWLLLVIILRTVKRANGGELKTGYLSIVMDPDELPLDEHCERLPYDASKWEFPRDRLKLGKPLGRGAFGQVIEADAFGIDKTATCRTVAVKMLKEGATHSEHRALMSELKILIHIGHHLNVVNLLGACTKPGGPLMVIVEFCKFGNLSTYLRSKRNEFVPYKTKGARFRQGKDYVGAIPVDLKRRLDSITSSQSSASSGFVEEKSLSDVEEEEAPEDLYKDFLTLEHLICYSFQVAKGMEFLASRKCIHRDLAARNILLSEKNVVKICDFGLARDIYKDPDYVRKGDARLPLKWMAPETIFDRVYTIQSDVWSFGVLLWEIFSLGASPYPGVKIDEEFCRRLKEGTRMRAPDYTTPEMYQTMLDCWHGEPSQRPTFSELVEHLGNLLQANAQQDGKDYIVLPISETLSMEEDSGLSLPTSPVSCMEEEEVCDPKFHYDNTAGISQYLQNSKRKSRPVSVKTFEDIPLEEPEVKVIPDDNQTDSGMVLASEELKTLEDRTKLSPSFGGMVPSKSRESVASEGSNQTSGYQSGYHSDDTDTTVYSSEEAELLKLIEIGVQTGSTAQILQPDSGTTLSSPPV

Regarding `CC(=O)Oc1c(-c2ccc(O)c(O)c2)c(O)c(O)c2c1oc1cc(O)c(O)cc12` [BOLETOPSIN C], the IC50 (in general, the point on the concentration scale where inhibition reaches its midpoint) in assay [1] was 70.7 µM; in assay [2] it was 9.04 µM.

The record behind these values is ChEMBL document CHEMBL1158547, “KDR Kinase Inhibitor Isolated from the Mushroom Boletopsis leucomelas” (J Nat Prod, 2010).
